Experimental data as given in patent US12263170B2, “Systems and methods for treating cancer” (priority 2015, dated 2025).
Each block holds one compound with its values, some of them ahead of it.

How the values were obtained:
[1] = test system: A427 cell line; assay: Percent viability with AZD1775, LKB1 rescue vs KDLKB1 transfection (FIG. 2A); type: cell-based, human; conditions: A427 cells with rescue copy of LKB1 compared to control KDLKB1 (non-functional kinase)
Method: FIG. 2A illustrates, in accordance with embodiments herein, the role of LKB1 in the sensitivity of A427 cells to AZD1775. The A427 cell line was transfected with either a rescue copy of LKB1 (“LKB1”) or a copy of LKB1 with a non-functional kinase domain (“KDLKB1”) that produces non-functional LKB1. […] Next, referring to FIGS. 2A-2C, the LKB1 deficient lines discussed above in reference to FIGS. 1A and 1B were assessed for percent viability in the presence of increasing concentrations of AZD1775. Moreover, as all three cell lines were already LKB1 deficient, the inventors wanted to elucidate the role of LKB1 in the sensitivity of these cells to AZD1775. As such, each cell line with transfected with either a rescue copy of LKB1 (referred to as “LKB1” in these figures) or a copy of LKB1 with a non-functional kinase domain (referred to as KDLKB1 in these figures), which would produce non-functional LKB1.

[2] = test system: H2030 cell line; assay: Percent viability with AZD1775, LKB1 rescue vs KDLKB1 transfection (FIG. 2C); type: cell-based, human; conditions: H2030 cells with rescue copy of LKB1 compared to control KDLKB1 (non-functional kinase)
Method: FIG. 2C illustrates, in accordance with embodiments herein, the role of LKB1 in the sensitivity of […] to AZD1775. The H2030 cell line was transfected with either a rescue copy of LKB1 (“LKB1”) or a copy of LKB1 with a non-functional kinase domain (“KDLKB1”) that produces non-functional LKB1.
Next, referring to FIGS. 2A-2C, the LKB1 deficient lines discussed above in reference to FIGS. 1A and 1B were assessed for percent viability in the presence of increasing concentrations of AZD1775. Moreover, as all three cell lines were already LKB1 deficient, the inventors wanted to elucidate the role of LKB1 in the sensitivity of these cells to AZD1775. As such, each cell line with transfected with either a rescue copy of LKB1 (referred to as “LKB1” in these figures) or a copy of LKB1 with a non-functional kinase domain (referred to as KDLKB1 in these figures), which would produce non-functional LKB1.

[3] = test system: LKB1 deficient cells (A427, A549, and H2030); assay: Viability of KRas mutant NSCLC adenocarcinoma cell lines at various concentrations of AZD1775 (FIGS. 1A, 1B); type: cell-based, human; conditions: LKB1 deficient cells compared with the other KRas mutant NSCLC cell lines
Excerpt: Referring to FIGS. 1A and 1B, the inventors assessed the impact of various concentrations of a G2/M checkpoint inhibitor (i.e., Wee1 kinase inhibitor-AZD1775) on various cell lines with different genetic backgrounds. All of the cell lines tested in FIGS. 1A and 1B where KRas mutant, some of the cell lines were p53 mutants, and some of the cell lines (i.e., A427, A549, and H2030) were LKB1 deficient. All cell lines were adenocarcinoma from patients with NSCLC.

[4] = test system: A549 cell line; assay: Percent viability with AZD1775, LKB1 rescue vs KDLKB1 transfection (FIG. 2B); type: cell-based, human; conditions: A549 cells with rescue copy of LKB1 compared to control KDLKB1 (non-functional kinase)
Method: FIG. 2B illustrates, in accordance with embodiments herein, the role of LKB1 in the sensitivity of […] to AZD1775. The A549 cell line was transfected with either a rescue copy of LKB1 (“LKB1”) or a copy of LKB1 with a non-functional kinase domain (“KDLKB1”) that produces non-functional LKB1. […] Next, referring to FIGS. 2A-2C, the LKB1 deficient lines discussed above in reference to FIGS. 1A and 1B were assessed for percent viability in the presence of increasing concentrations of AZD1775. Moreover, as all three cell lines were already LKB1 deficient, the inventors wanted to elucidate the role of LKB1 in the sensitivity of these cells to AZD1775. As such, each cell line with transfected with either a rescue copy of LKB1 (referred to as “LKB1” in these figures) or a copy of LKB1 with a non-functional kinase domain (referred to as KDLKB1 in these figures), which would produce non-functional LKB1.

[5] = test system: 3381A murine cells (KRas mutant and LKB1 deficient); assay: Percent viability with AZD1775, LKB1 rescue vs empty vector pBabe (FIG. 2D); type: cell-based; conditions: 3381A cells with rescue copy of LKB1 compared to control empty vector (pBabe)
Method: Referring now to FIG. 2D, a similar experiment was conducted on murine cells that were KRas mutant and LKB1 deficient (3381A cells).

[6] = test system: A549 and H2030 cells; assay: Cell signaling molecules after AZD1775 alone and with 2Gy ionizing radiation (FIGS. 4A, 4B); type: cell-based, human; conditions: AZD1775 alone and in combination with 2Gy of ionizing radiation
Excerpt: Next, referring now to FIGS. 4A and 4B, the investigators examined cell signaling molecules in A549 and H2030 cells, including both rescue and control conditions. The investigators treated with AZD1775 alone and in combination with 2Gy of ionizing radiation.

[7] = test system: H2030 cells (KRas mutant and LKB1 deficient); assay: Viability with AZD1775 combined with cisplatin, pemetrexed or gemcitabine (FIGS. 3A-3C); type: cell-based, human; conditions: AZD1775 alone
Method: Similar to the previous experiments, H2030 cells (KRas mutant and LKB1 deficient) were transfected with a rescue copy of LKB1 or a version of LKB1 with a non-functional kinase domain that produces non-functional LKB1 protein. Moreover, these different cells were treated with AZD1775 (also referred to as MK1775) in combination with cisplatin (FIG. 3A), pemetrexed (FIG. 3B), or gemcitabine (FIG. 3C).

[8] = test system: mutant kras/lkb 1 deficient nsclc tumors in transgenic mice; assay: Survival of adenoCre-infected KRasG12D/LKB1 FL/FL/luci mice (FIG. 9); type: in vivo; conditions: Cisplatin once per week 2.5 mg/kg, with or without AZD1775 30 mg/kg three times per week; treated for four weeks; log-rank analysis
Method: Referring to FIG. 9, the investigators transiently infected 6-8 week old KRas^G12D/LKB 1^FL/FL/luci with 5×10^6 P.F.U. of adenoCre via intratracheal inhalation. Mice received scans using the Xenogen IVIS at 8 weeks to identify disease. Mice were then randomized to Cisplatin (once per week, 2.5 mg/kg) or AZD1775 (30 mg/kg, three times per week)+cisplatin and treated for four weeks. Survival was calculated via log-rank analysis. It was observed that the median survival rate of mice receiving Cisplatin was 12 weeks, whereas the median survival rate of mice receiving Cisplatin+AZD1775 was 14 weeks. For this set of experiments, the hazard ratio was 0.3972, while the confidence interval was 0.0605-0.6086.

- EC50 values ([3]; FIG. 1B): lowest EC50 values
Structure (SMILES): C=CCn1c(=O)c2cnc(Nc3ccc(N4CCN(C)CC4)cc3)nc2n1-c1cccc(C(C)(C)O)n1 [AZD1775]
- sensitivity to AZD1775 as measured by percent viability [1]: less sensitive
- sensitivity to AZD1775 as measured by percent viability [2]: less sensitive
- viability ([3]; increasing concentrations of AZD1775, FIG. 1A): greatest reduced viability
- sensitivity to AZD1775 as measured by percent viability [4]: less sensitive
- sensitivity to AZD1775 as measured by percent viability [5]: less sensitive
- phosphorylated AMPK ([6]; LKB1 (rescue) cells): increased amounts of phosphorylated AMPK
- phosphorylated H2AX (indicator of DNA damage) ([6]; LKB1-deficient cells): increased amount of phosphorylated H2AX
- cell viability [7]: negative impact on cell viability

Structure (SMILES): N.N.[Cl][Pt][Cl] [Cisplatin]
- median survival rate [8]: 12 weeks
